Legend:
Endothelial lipase (EL) = Endothelial lipase (EL) (Homo sapiens (Human), UniProt Q9Y5X9); test: EL assay: endothelial lipase activity with fluorescent substrate A10070 in DMPG vesicles; type: biochemical
Procedure, shortened: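 Vesicles prepared: A10070 dried with DMPG, resuspended in HEPES pH 8.0/NaCl/EDTA, sonicated on ice. Enzyme incubated with compound 30 min at 37° C. Reaction started with 1:10 diluted vesicles. Fluorescence (490/530 nm) followed 60 min; slope from 300–900 secs gives rate.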

hepatic lipase (HL) = hepatic lipase (HL) (Homo sapiens (Human), UniProt P11150); test: HL assay: hepatic lipase activity with fluorescent substrate A10070 in DMPG vesicles; type: biochemical
Description: Endothelial lipase (EL) and hepatic lipase (HL) activities were measured using a fluorescent substrate, A10070, (Invitrogen, CA) doped into an artificial vesicle containing DMPG (Avanti Polar Lipids) as the excipient. Vesicles were prepared by combining 571 μL of 29 mM DMPG in a 1:1 mixture of MeOH and CHCl3 with 2000 μL of 1 mM A10070 in a 1:1 mixture of MeOH and CHCl3. The mixture was dried under nitrogen in multiple vials then resuspended in 20 mL total volume of 50 mM HEPES pH 8.0 buffer containing 50 mM NaCl and 0.2 mM EDTA. The sample was allowed to sit at room temperature for 15 min and then was sonicated 3×4 mins on ice with a Branson Sonicator using duty cycle 1. This preparation provides vesicles with a mole fraction of 0.11 for the FRET substrate.
The enzymatic assay was measured using 384-well white Optiplates. Each well contained 20 μL of assay buffer (50 mM HEPES pH 8.0, 50 mM NaCl and 1 mM CaCl2) and 0.25 μL of a DMSO solution containing a compound of interest. EL or HL (10 μL) was added and allowed to incubate with the compound for 30 min at 37° C. The source of EL was conditioned media obtained from HT-1080 cells that were transformed using RAGE technology (Athersys) to overexpress endogenous EL, and HL was partially purified from conditioned media obtained from COS cells overexpressing HL. The reaction was started by the addition of 10 μL of a 1:10 dilution of vesicles. The final total reaction volume was […]. The reaction rates were measured on a Gemini plate reader with an excitation wavelength of 490 nm and an emission wavelength of 530 nm. Readings were taken over a period of 60 minutes, and the slope between 300 and 900 secs of the readout was used to calculate the rate of the reaction.

Sequence of hepatic lipase (HL) (P11150 23-499, species assumed): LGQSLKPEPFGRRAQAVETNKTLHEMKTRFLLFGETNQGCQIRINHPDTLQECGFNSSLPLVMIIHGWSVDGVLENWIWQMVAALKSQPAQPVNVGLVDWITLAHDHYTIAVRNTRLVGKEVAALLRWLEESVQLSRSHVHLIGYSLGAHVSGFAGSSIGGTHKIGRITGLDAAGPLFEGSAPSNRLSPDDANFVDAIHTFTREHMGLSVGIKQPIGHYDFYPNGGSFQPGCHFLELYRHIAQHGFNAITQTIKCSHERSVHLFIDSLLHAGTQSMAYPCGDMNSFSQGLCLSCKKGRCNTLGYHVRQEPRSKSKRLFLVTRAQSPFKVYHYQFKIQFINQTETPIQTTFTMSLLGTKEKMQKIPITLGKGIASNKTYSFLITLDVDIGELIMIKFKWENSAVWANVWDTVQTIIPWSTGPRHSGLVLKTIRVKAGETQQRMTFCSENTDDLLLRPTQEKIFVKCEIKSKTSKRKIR
Sequence of Endothelial lipase (EL) (Q9Y5X9 21-500): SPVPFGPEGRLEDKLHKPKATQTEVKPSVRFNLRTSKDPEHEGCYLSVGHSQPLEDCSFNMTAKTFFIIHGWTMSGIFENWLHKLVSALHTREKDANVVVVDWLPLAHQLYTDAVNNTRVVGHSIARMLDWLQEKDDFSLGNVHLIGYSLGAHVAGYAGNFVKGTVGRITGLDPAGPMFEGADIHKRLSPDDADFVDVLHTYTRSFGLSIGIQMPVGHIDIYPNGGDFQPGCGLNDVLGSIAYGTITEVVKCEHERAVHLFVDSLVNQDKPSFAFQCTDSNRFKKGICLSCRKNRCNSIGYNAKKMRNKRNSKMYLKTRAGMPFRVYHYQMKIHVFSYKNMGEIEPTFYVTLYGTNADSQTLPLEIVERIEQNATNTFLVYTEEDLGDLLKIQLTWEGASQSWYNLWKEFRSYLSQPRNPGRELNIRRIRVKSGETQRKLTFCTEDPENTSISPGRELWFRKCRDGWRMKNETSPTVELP

SMILES	IC50 (Endothelial lipase (EL))	IC50 (hepatic lipase (HL))
CS(=O)(=O)C(C(=O)NCCS(N)(=O)=O)c1nc2ccc(-c3cnn(-c4ccc(F)cc4)c3)cc2s1 (stereo not drawn) [Example B74, 2-(6-(1-(4-fluorophenyl)-1H-pyrazol-4-yl)-1,3-benzothiazol-2-yl)-2-(methylsulfonyl)-N-(2-sulfamoylethyl)acetamide]	< 10 nM	< 10 nM
NS(=O)(=O)CCNC(=O)C(c1nc2ccc(-c3cnn(CCN4CCOCC4)c3)cc2s1)S(=O)(=O)Cc1ccc(F)cc1 (stereo not drawn) [Example B75, 2-((4-fluorobenzyl)sul-fonyl)-2-(6-(1-(2-(4-morpholinyl)ethyl)-1H-pyrazol-4-yl)-1,3-benzothiazol-2-yl)-N-(2-sulfamoylethyl)acetamide]	< 10 nM	25000 nM
CC(C)(C)OC(=O)N1CCC(n2cc(-c3ccc4nc(C(C(=O)NCCS(N)(=O)=O)S(C)(=O)=O)sc4c3)cn2)CC1 (stereo not drawn) [Example B76, tert-butyl 4-(4-(2-(1-(methylsulfonyl)-2-oxo-2-((2-sulfamoyl-ethyl)amino)ethyl)-1,3-benzothiazol-6-yl)-1H-pyrazol-1-yl)-1-piperidinecarboxylate]	< 10 nM	21 nM
NS(=O)(=O)CCNC(=O)C(c1nc2ccc(-c3cnn(CCN4CCOCC4)c3)cc2s1)S(=O)(=O)CC1CC1 (stereo not drawn) [Example B77, 2-[(cyclopropylmethyl)sul-fonyl]-2-(6-{1-[2-(4-morpholinyl)ethyl]-1H-pyrazol-4-yl}-1,3-benzothiazol-2-yl)-N-(2-sulfamoylethyl)acetamide]	< 10 nM	2260 nM
CS(=O)(=O)C(C(=O)NCCS(N)(=O)=O)c1nc2ccc(-c3c[nH]nc3C(F)(F)F)cc2s1 (stereo not drawn) [Example B78, 2-(methylsulfonyl)-N-(2-sulfamoylethyl)-2-(6-(3-(trifluoromethyl)-1H-pyrazol-4-yl)-1,3-benzothiazol-2-yl)a-cetamide]	< 10 nM	68 nM
COc1cccc(-c2ccc3nc(C(C(=O)NCCS(N)(=O)=O)S(C)(=O)=O)sc3c2)c1 (stereo not drawn) [Example B79, 2-(6-(3-methoxyphenyl)-1,3-benzothiazol-2-yl)-2-(methylsulfonyl)-N-(2-sulfamoylethyl)acetamide]	< 10 nM	< 10 nM
Cc1nnc(CNC(=O)C(c2nc3cc(C)c(-c4ccc(F)nc4)cc3s2)S(C)(=O)=O)o1 (stereo not drawn) [Example B80, 2-[6-(6-fluoro-3-pyridinyl)-5-methyl-1,3-benzothiazol-2-yl]-N-[(5-methyl-1,3,4-oxadiazol-2-yl)methyl]-2-(methylsulfonyl)acetamide]	< 10 nM	< 10 nM
Cc1nnc(CNC(=O)C(c2nc3cc(C)c(-c4ccc(C(=O)N5CCOCC5)cc4)cc3s2)S(C)(=O)=O)o1 (stereo not drawn) [Example B81, 2-{5-methyl-6-[4-(4-morpholinylcarbonyl)phen-yl]-1,3-benzothiazol-2-yl}-N-[(5-methyl-1,3,4-oxadiazol-2-yl)methyl]-2-(methylsulfonyl)acetamide]	14 nM	196 nM
Cc1nnc(CNC(=O)C(c2nc3cc(C)c(-c4ccccc4)cc3s2)S(C)(=O)=O)o1 (stereo not drawn) [Example B82, N-((5-methyl-1,3,4-oxadiazol-2-yl)methyl)-2-(5-methyl-6-phenyl-1,3-benzothiazol-2-yl)-2-(methylsulfonyl)acetamide]	85 nM	177 nM
Cc1nnc(CNC(=O)C(c2nc3cc(C)c(-c4cnn(CCN5CCOCC5)c4)cc3s2)S(C)(=O)=O)o1 (stereo not drawn) [Example B83, 2-(5-methyl-6-(1-(2-(4-morpholinyl)ethyl)-1H-pyrazol-4-yl)-1,3-benzothiazol-2-yl)-N-((5-methyl-1,3,4-oxadiazol-2-yl)methyl)-2-(methylsulfonyl)acetamide]	77 nM	229 nM
Cc1nnc(CNC(=O)C(c2nc3cc(C)c(-c4ccc(N5CCNCC5)cc4)cc3s2)S(C)(=O)=O)o1 (stereo not drawn) [Example B84, N-((5-methyl-1,3,4-oxadiazol-2-yl)methyl)-2-(5-methyl-6-(4-(piperazin-1-yl)phenyl)-1,3-benzothiazol-2-yl)-2-(methylsulfonyl)acetamide]	34 nM	350 nM
Cc1nnc(CNC(=O)C(c2nc3cc(C)c(-c4ccc5c(c4)CCC(=O)N5)cc3s2)S(C)(=O)=O)o1 (stereo not drawn) [Example B85, N-((5-methyl-1,3,4-oxadiazol-2-yl)methyl)-2-(5-methyl-6-(2-oxo-1,2,3,4-tetrahydro-6-quinolinyl)-1,3-benzothiazol-2-yl)-2-(methylsulfonyl)acetamide]	11 nM	124 nM
CS(=O)(=O)C(C(=O)NCCS(N)(=O)=O)c1nc2cc(-c3ccc(C(=O)N4CCOCC4)cc3)ccc2s1 (stereo not drawn) [Example B86, 2-(methylsulfonyl)-2-(5-(4-(4-morpholinylcarbonyl)phen-yl)-1,3-benzothiazol-2-yl)-N-(2-sulfamoylethyl)a-cetamide]	< 10 nM	494 nM
COc1ccc(-c2ccc3sc(C(C(=O)NCCS(N)(=O)=O)S(C)(=O)=O)nc3c2)cn1 (stereo not drawn) [Example B87, 2-(5-(6-methoxy-3-pyridinyl)-1,3-benzothiazol-2-yl)-2-(methylsulfonyl)-N-(2-sulfamoylethyl)acetamide]	0.5 nM	2.6 nM
COc1cc(-c2ccc3sc(C(C(=O)NCCS(N)(=O)=O)S(C)(=O)=O)nc3c2)ccn1 (stereo not drawn) [Example B88, 2-(5-(2-methoxy-4-pyridinyl)-1,3-benzothiazol-2-yl)-2-(methylsulfonyl)-N-(2-sulfamoylethyl)acetamide]	0.5 nM	2.2 nM
CS(=O)(=O)C(C(=O)NCCS(N)(=O)=O)c1nc2cc(-c3cncnc3)ccc2s1 (stereo not drawn) [Example B89, 2-(methylsulfonyl)-2-(5-(5-pyrimidinyl)-1,3-benzothiazol-2-yl)-N-(2-sulfamoylethyl)acetamide]	4.4 nM	70 nM
COCCn1cc(-c2ccc3sc(C(C(=O)NCCS(N)(=O)=O)S(C)(=O)=O)nc3c2)cn1 (stereo not drawn) [Example B90, 2-(5-(1-(2-methoxyethyl)-1H-pyrazol-4-yl)-1,3-benzothiazol-2-yl)-2-(methylsulfonyl)-N-(2-sulfamoylethyl)acetamide]	< 10 nM	100 nM
CS(=O)(=O)C(C(=O)NCCS(N)(=O)=O)c1nc2cc(-c3cnn(CCN4CCOCC4)c3)ccc2s1 (stereo not drawn) [Example B91, 2-(methylsulfonyl)-2-(5-(1-(2-(4-morpholinyl)ethyl)-1H-pyrazol-4-yl)-1,3-benzothiazol-2-yl)-N-(2-sulfamoylethyl)acetamide]	< 10 nM	1800 nM
CS(=O)(=O)C(C(=O)NCCS(N)(=O)=O)c1nc2cc(-c3ccccc3)ccc2s1 (stereo not drawn) [Example B92, 2-(methylsulfonyl)-2-(5-phenyl-1,3-benzothiazol-2-yl)-N-(2-sulfamoylethyl)a-cetamide]	< 10 nM	< 10 nM
COCCNC(=O)c1ccc(-c2ccc3sc(C(C(=O)NCCS(N)(=O)=O)S(C)(=O)=O)nc3c2)cc1 (stereo not drawn) [Example B93, N-(2-methoxyethyl)-4-(2-(1-(methylsulfonyl)-2-oxo-2-((2-sulfamoylethyl)a-mino)ethyl)-1,3-benzothiazol-5-yl)ben-zamide]	0.5 nM	7.1 nM
CS(=O)(=O)C(C(=O)NCCS(N)(=O)=O)c1nc2cc(-c3ccc(C(=O)NCCO)cc3)ccc2s1 (stereo not drawn) [Example B94, N-(2-hydroxyethyl)-4-(2-(1-(methylsulfonyl)-2-oxo-2-((2-sulfamoylethyl)a-mino)ethyl)-1,3-benzothiazol-5-yl)ben-zamide]	< 10 nM	123 nM

From US8987314B2, “Amide, urea or sulfone amide linked benzothiazole inhibitors of endothelial lipase” (Bristol-Myers Squibb Company, priority 2012, dated 2015)
